Species: Rattus norvegicus
Test: DrugMatrix - Regimen: Daily Repeat
Type: toxicity, organism-based, Sprague-Dawley
Parameters: regimen Daily Repeat, gender Male, age 6-8 weeks
Conditions: in vivo, po, 0 mg/kg, route oral GAVAGE, dose level Control, vehicle 100 % WATER; for ABSOLUTE BASOPHIL / ABSOLUTE EOSINOPHIL / ABSOLUTE LYMPHOCYTE / ABSOLUTE MONOCYTE / ABSOLUTE SEGMENTED NEUTROPHIL / BASOPHIL / EOSINOPHIL / ERYTHROCYTE COUNT / HEMATOCRIT / HEMOGLOBIN / LEUKOCYTE COUNT / LYMPHOCYTE / MEAN CORPUSCULAR HEMOGLOBIN / MEAN CORPUSCULAR HEMOGLOBIN CONCENTRATION / MEAN CORPUSCULAR VOLUME / MONOCYTE / NEUTROPHIL / NUCLEATED RED BLOOD CELLS / PLATELET COUNT: tissue Blood; for ALANINE AMINOTRANSFERASE / ALBUMIN / ALKALINE PHOSPHATASE / ASPARTATE AMINOTRANSFERASE / BLOOD UREA NITROGEN / CARBON DIOXIDE / CHLORIDE / CHOLESTEROL / CREATINE PHOSPHOKINASE / CREATININE / GLUCOSE / LACTATE DEHYDROGENASE / LIPASE / PHOSPHORUS / POTASSIUM / SODIUM / TOTAL BILIRUBIN / TOTAL PROTEIN / URIC ACID: tissue Plasma

Cc1c(N(C)CS(=O)(=O)[O-])c(=O)n(-c2ccccc2)n1C.[Na+] [DIPYRONE SODIUM]
ABSOLUTE BASOPHIL (72 h, time 3 day): 0 CELLS/uL
ABSOLUTE EOSINOPHIL (72 h, time 3 day): 25 CELLS/uL
ABSOLUTE LYMPHOCYTE (72 h, time 3 day): 14357 CELLS/uL
ABSOLUTE MONOCYTE (72 h, time 3 day): 456.33 CELLS/uL
ABSOLUTE SEGMENTED NEUTROPHIL (72 h, time 3 day): 1461.67 CELLS/uL
BASOPHIL (72 h, time 3 day): 0%
EOSINOPHIL (72 h, time 3 day): 0.17%
ERYTHROCYTE COUNT (72 h, time 3 day): 5.85 x10E6/uL
HEMATOCRIT (72 h, time 3 day): 37.62%
HEMOGLOBIN (72 h, time 3 day): 13.87 G/DL
LEUKOCYTE COUNT (72 h, time 3 day): 16.3 x10E3/uL
LYMPHOCYTE (72 h, time 3 day): 88%
MEAN CORPUSCULAR HEMOGLOBIN (72 h, time 3 day): 23.68 pg
MEAN CORPUSCULAR HEMOGLOBIN CONCENTRATION (72 h, time 3 day): 36.88 G/DL
MEAN CORPUSCULAR VOLUME (72 h, time 3 day): 64.23 fL
MONOCYTE (72 h, time 3 day): 2.83%
NEUTROPHIL (72 h, time 3 day): 9%
NUCLEATED RED BLOOD CELLS (72 h, time 3 day): 0 /100WBC
PLATELET COUNT (72 h, time 3 day): 1125.33 x10E3/uL
ALANINE AMINOTRANSFERASE (72 h, time 3 day): 49.67 u/L
ALBUMIN (72 h, time 3 day): 4.23 G/DL
ALKALINE PHOSPHATASE (72 h, time 3 day): 400.83 u/L
ASPARTATE AMINOTRANSFERASE (72 h, time 3 day): 89.17 u/L
BLOOD UREA NITROGEN (72 h, time 3 day): 16 mg/dL
CARBON DIOXIDE (72 h, time 3 day): 31.83 mmol/L
CHLORIDE (72 h, time 3 day): 99 MEQ/L
CHOLESTEROL (72 h, time 3 day): 76 mg/dL
CREATINE PHOSPHOKINASE (72 h, time 3 day): 777.67 u/L
CREATININE (72 h, time 3 day): 0.22 mg/dL
GLUCOSE (72 h, time 3 day): 158.33 mg/dL
LACTATE DEHYDROGENASE (72 h, time 3 day): 186.17 u/L
LIPASE (72 h, time 3 day): 9.33 u/L
PHOSPHORUS (72 h, time 3 day): 12.95 mg/dL
POTASSIUM (72 h, time 3 day): 7.01 MEQ/L
SODIUM (72 h, time 3 day): 141.53 MEQ/L
TOTAL BILIRUBIN (72 h, time 3 day): 0.18 mg/dL
TOTAL PROTEIN (72 h, time 3 day): 6.08 G/DL
URIC ACID (72 h, time 3 day): 1.77 mg/dL
ABSOLUTE BASOPHIL (120 h, time 5 day): 0 CELLS/uL
ABSOLUTE EOSINOPHIL (120 h, time 5 day): 0 CELLS/uL
ABSOLUTE LYMPHOCYTE (120 h, time 5 day): 8994.5 CELLS/uL
ABSOLUTE MONOCYTE (120 h, time 5 day): 122.33 CELLS/uL
ABSOLUTE SEGMENTED NEUTROPHIL (120 h, time 5 day): 666.5 CELLS/uL
BASOPHIL (120 h, time 5 day): 0%
EOSINOPHIL (120 h, time 5 day): 0%
ERYTHROCYTE COUNT (120 h, time 5 day): 5.74 x10E6/uL
HEMATOCRIT (120 h, time 5 day): 35.17%
HEMOGLOBIN (120 h, time 5 day): 13.28 G/DL
LEUKOCYTE COUNT (120 h, time 5 day): 9.78 x10E3/uL
LYMPHOCYTE (120 h, time 5 day): 92.33%
MEAN CORPUSCULAR HEMOGLOBIN (120 h, time 5 day): 23.15 pg
MEAN CORPUSCULAR HEMOGLOBIN CONCENTRATION (120 h, time 5 day): 37.8 G/DL
MEAN CORPUSCULAR VOLUME (120 h, time 5 day): 61.27 fL
MONOCYTE (120 h, time 5 day): 1.33%
NEUTROPHIL (120 h, time 5 day): 6.33%
NUCLEATED RED BLOOD CELLS (120 h, time 5 day): 0 /100WBC
PLATELET COUNT (120 h, time 5 day): 1117 x10E3/uL
ALANINE AMINOTRANSFERASE (120 h, time 5 day): 47.83 u/L
ALBUMIN (120 h, time 5 day): 4.33 G/DL
ALKALINE PHOSPHATASE (120 h, time 5 day): 414.5 u/L
ASPARTATE AMINOTRANSFERASE (120 h, time 5 day): 77.5 u/L
BLOOD UREA NITROGEN (120 h, time 5 day): 17 mg/dL
CARBON DIOXIDE (120 h, time 5 day): 32.33 mmol/L
CHLORIDE (120 h, time 5 day): 99.33 MEQ/L
CHOLESTEROL (120 h, time 5 day): 76.33 mg/dL
CREATINE PHOSPHOKINASE (120 h, time 5 day): 363.67 u/L
CREATININE (120 h, time 5 day): 0.25 mg/dL
GLUCOSE (120 h, time 5 day): 173.5 mg/dL
LACTATE DEHYDROGENASE (120 h, time 5 day): 129.33 u/L
LIPASE (120 h, time 5 day): 9.17 u/L
PHOSPHORUS (120 h, time 5 day): 11.52 mg/dL
POTASSIUM (120 h, time 5 day): 5.73 MEQ/L
SODIUM (120 h, time 5 day): 143.85 MEQ/L
TOTAL BILIRUBIN (120 h, time 5 day): 0.2 mg/dL
TOTAL PROTEIN (120 h, time 5 day): 6.43 G/DL
URIC ACID (120 h, time 5 day): 0.97 mg/dL

— ChEMBL document CHEMBL3885881, “DrugMatrix”
